Laboratory results taken from patent publication US8129527B2, “Analogs of dehydrophenylahistins and their therapeutic use” (Nereus Pharmacuticals, Inc., priority 2006, dated 2012).

Experiments:
[1] = tested on: MES-SA/Dx5 multidrug resistant; test: Cell growth inhibition assay, resazurin (Example 11); format: cell-based, human; details: for EC50: Homo sapiens, MES-SA/Dx5, mean ± standard deviation of three independent experiments; for cytotoxic activity against both MES-SA and MES-SA/Dx5: in words; for Fold change: ratio of EC50 values (MES-SA/Dx5:MES-SA)
[2] = tested on: MES-SA human uterine sarcoma; test: as above; format: cell-based; details: mean ± standard deviation of three independent experiments
[3] = tested on: MDA-MB-231 breast adenocarcinoma; test: as above; format: cell-based; details: Homo sapiens, 48 hours, mean ± SD where n ≧ 3
Protocol: (§1) The growth inhibitory activity of NPI-2421, NPI-2463, NPI-2503 and NPI-2504 were determined against selected human (colorectal adenocarcinoma, HT-29; breast adenocarcinoma, MDA-MB-231; non-small cell lung carcinoma, NCI-H292 and prostate carcinomas, PC-3 and DU 145) and mouse (melanoma, B16-F10) tumor cell lines.
(§2) HT-29 (HTB-38), MDA-MB-231 (HTB-26), NCI-H292 (CRL-1848), B16-F10 (CRL-6475), PC-3 (CRL-1435) and DU 145 (HTB-81) cells were all purchased from the ATCC. The cell lines were maintained in their respective ATCC recommended culture media and cultured in an incubator at 37° C. in 5% CO2 and 95% humidified air.
(§3) 20 mM stock solutions of compounds were prepared in 100% DMSO and stored at −80° C. 10× concentrated serial dilutions of the compounds were prepared in B16-F10 cell culture medium for final concentrations ranging from 20 μM to […]. Ten μl volumes of the 10× serial dilutions were added to the test wells in triplicate and the plates returned to the incubator for 48 hours. The final concentration of DMSO was 0.25% in all samples.
(§4) Following 48 hours of drug exposure, 10 μl of 0.2 mg/ml resazurin (obtained from Sigma-Aldrich Chemical Co.) in Mg^2+, Ca^2+ free phosphate buffered saline was added to each well and the plates were returned to the incubator for 3-6 hours. […] Resazurin dye in medium without cells was used to determine the background, which was subtracted from the data for all experimental wells.

PC-3 prostate carcinoma = test: as above; format: cell-based; details: Homo sapiens, 48 hours, mean ± SD where n ≧ 3, ** n = 1
Protocol: as §1, §2, §3, §4

[4] = tested on: NCI-H292 non-small cell lung carcinoma; test: as above; format: cell-based; details: Homo sapiens, 48 hours, mean ± SD where n ≧ 3, ** n = 1
Protocol: as §1, §2, §3, §4

B16-F10 melanoma = test: as above; format: cell-based; details: Mus musculus, 48 hours, mean ± SD where n ≧ 3
Protocol: as §1, §2, §3, §4

[5] = tested on: DU 145 prostate carcinoma; test: as above; format: cell-based; details: Homo sapiens, 48 hours
Protocol: as §1, §2, §3, §4

[6] = tested on: HT-29 colorectal adenocarcinoma; test: as above; format: cell-based; details: Homo sapiens, 48 hours, mean ± SD where n ≧ 3
Protocol: as §1, §2, §3, §4

HuVECs = test: as above; format: cell-based, human; details: for EC50: Homo sapiens, HuVEC, 48 hours, mean values of two independent experiments; for cytotoxicity against HuVECs: in words
Protocol: The growth inhibitory activity of NPI-2421 and NPI-2463 were determined against human umbilical […] endothelial cells, HuVECs.
HuVECs (Cambrex Biosciences; CC2519A) were maintained in EGM-2 medium at 37° C. in 5% CO2 and 95% humidified air.
For cell growth inhibition assays, HuVECs were seeded at 1×10^3 cells/well in 90 μl complete media into a Corning 3904 black-walled, clear-bottom tissue culture plates and the plates were incubated overnight to allow cells to establish and enter log phase growth. 20 mM stock solutions of compounds were prepared in 100% DMSO and stored at −80° C. […] Ten μl volumes of the 10× serial dilutions were added to the test wells in triplicate and the plates returned to the incubator for 48 hours. The final concentration of DMSO was 0.25% in all samples.
as §4

HT-29 cells = test: Additional cytotoxicity assays, resazurin (Table 3.1); format: cell-based, human; details: Table 3.1
In short: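 Cells exposed 48 hours to compounds at final concentrations 2.0×10^−5 M to 2.0×10^−10 M, in triplicate. Viability then read as resazurin fluorescence after 3-4 hours with dye; cell-free dye background subtracted.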

[7] = tested on: HL-60 human acute promyelocytic leukemia cells; test: Cell growth inhibition assay, resazurin (Example 11); format: cell-based; details: mean values of two independent experiments
Protocol: Human uterine sarcoma (MES-SA; CRL-1976), its multidrug resistant derivative (MES-SA/Dx5; CRL-1977), human acute promyelocytic leukemia cells (HL-60; CCL-240) and its multidrug resistant derivative (HL-60/MX2; CRL-2257) were purchased from ATCC and maintained in appropriate culture media. The cells were cultured in an incubator at 37° C. in 5% CO2 and 95% humidified air.
For cell growth inhibition assays, MES-SA and MES-SA/Dx5 cells were both seeded at 3×10^3 cells/well in 90 μl complete media into 96 well (Corning; 3904) black-walled, clear-bottom tissue culture plates and the plates were incubated overnight to allow cells to establish and enter log phase growth. HL-60 and HL-60/MX2 cells were both seeded at 5×10^4 cells/well in 90 μl complete media into 96 well plates on the day of compound addition. 20 mM stock solutions of the compounds were prepared in 100% DMSO and stored at −80° C. […] Ten μl volumes of the 10× serial dilutions were added to the test wells in triplicate and the plates returned to the incubator for 48 hours. The final concentration of DMSO was 0.25% in all samples.
as §4
HL-60/MX2 is a multidrug resistant tumor cell line derived from the human promyelocytic leukemia cell line, HL-60 and expresses reduced topoisomerase II activity. The data presented in Table 20 summarize the growth inhibitory effects of NPI-2421, NPI-2463, NPI-2503, NPI-2504 and NPI-2506 against HL-60 and its multidrug resistant derivative HL-60/MX2. Mitoxantrone, the topoisomerase II targeting agent was included as a control.

[8] = tested on: HL-60/MX2 multidrug resistant; test: as above; format: cell-based, human; details: for EC50: Homo sapiens, HL60/MX2, HL-60/MX2, mean values of two independent experiments; for cytotoxic activity against both HL-60 and HL-60/MX2: in words; for Fold change: ratio of EC50 values (HL-60/MX2:HL-60)
[9] = tested on: HT-29 human colorectal carcinoma cells; test: Cell growth inhibition assay, resazurin (Table 3.2); format: cell-based; details: Table 3.2, HT-29 cells, read-out: EC50 (M) Mean
In short: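 HT-29 cells seeded at 5×10^3/well overnight, then exposed in triplicate to compounds at final 20 μM to […] (0.25% DMSO) for 48 h at 37° C. Viability read by resazurin reduction after 3-4 h further incubation, with cell-free dye background subtracted.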

With `CC(C)(C)c1ocnc1/C=c1\[nH]c(=O)/c(=C/c2ccccc2)[nH]c1=O` [Compound 2421, tBu-delta-PLH-oxazole] the EC50 [1] was 17 ± 4 nM, the “cytotoxic activity against both MES-SA and MES-SA/Dx5” value [1] was “retained equivalent cytotoxic activity” and the Fold change [1] was 1.4. It also gave an EC50 [2] of 12 ± 3 nM, an EC50 [3] of 20 ± 6 nM and an EC50 (PC-3 prostate carcinoma) greater than 2000 nM. The EC50 [4] was 41 nM, the EC50 (B16-F10 melanoma) was 19 nM and the EC50 [5] was 25 nM. The EC50 [6] was 21 ± 9 nM, the EC50 (HuVECs) was 12 nM and the “cytotoxicity against HuVECs” value (HuVECs) was “cytotoxic against HuVECs”. For the same compound, the EC50 (HT-29 cells; Homo sapiens, HT-29, read-out: EC50 (M) Mean) was 2.22e-08 M, the “% cytotox Mean” value (HT-29 cells) was 88% and the EC50 [7] was 23 nM. The EC50 [8] was 14 nM, the “cytotoxic activity against both HL-60 and HL-60/MX2” value [8] was “retained cytotoxic activity” and the Fold change [8] was 0.6.

With `CC(C)(C)c1ocnc1/C=c1\[nH]c(=O)/c(=C/c2cccc(F)c2)[nH]c1=O` [Compound 2463, tBu-Oxadelta-PLH-m-F] the EC50 [1] was 14 ± 3 nM, the “cytotoxic activity against both MES-SA and MES-SA/Dx5” value [1] was “retained equivalent cytotoxic activity” and the Fold change [1] was 1.2. The EC50 [2] was 12 ± 4 nM, the EC50 [3] was 25 ± 9 nM and the EC50 (PC-3 prostate carcinoma) was 13 ± 5 nM. It also gave an EC50 [4] of 24 ± 11 nM, an EC50 (B16-F10 melanoma) of 14 ± 5 nM and an EC50 [5] of 32 nM. For the same compound, the EC50 [6] was 16 ± 3 nM, the EC50 (HuVECs) was 10 nM and the “cytotoxicity against HuVECs” value (HuVECs) was “cytotoxic against HuVECs”. The EC50 [9] was 1.71e-08 M, the EC50 [7] was 26 nM and the EC50 [8] was 14 nM. For the same compound, the “cytotoxic activity against both HL-60 and HL-60/MX2” value [8] was “retained cytotoxic activity” and the Fold change [8] was 0.5.
